Each structure is given as a SMILES string.

Common to all, as to format: cell-based, human
Data set [1] has as its system neocortical organoids. As to conditions: 3 μM cocaine 1 h every other day, days 32-44; measured day 44. Here is the method: Endogenous ROS were measured by incubating neocortical organoids at day 44 with 100 μM 2′,7′-dichlorofluorescein diacetate (DCFH-DA) (Sigma-Aldrich) for 30 min with or without cocaine. The organoids were washed and dissolved in 1% Triton X-100 in PBS. Fluorescence for each sample was measured at an excitation wavelength of 485 nm, and an emission wavelength of 530 nm using a fluorescence microplate reader (Techan Genios). Protein concentration for each sample was determined using the BCA assay (Pierce BCA® Protein Assay Kits; Thermo Scientific), according to manufacturer's instructions. The level of endogenous ROS for each sample was determined by dividing the fluorescence units by the concentration of protein in the lysate.
Taking into consideration that cocaine concentrations in the fetal rat neocortex drop rapidly to negligible levels 1 h after cocaine administration (Lee et al, PLoS Med. 5:e117, 2008), and to create a physiologically-meaningful drug treatment schedule in vitro, the neocortical organoids were exposed to a pharmacologically-relevant dose of cocaine, 3 μM (Kindberg et al, Dis. Model Mech. 7:1397-1405, 2014), for 1 h every other day, from days 32-44. […] In the present model, post-mitotic neurons migrated toward the periphery of the NE. […] The percentage of BrdU^+ cells that expressed TUJ1 was increased by cocaine as compared to control (FIG. 5F and FIG. 6B).

Data set [2] relates to neocortical organoids. The note with it: 3 μM cocaine days 32-44, days 51-52. As to the method: (§1) FIGS. 5A-5I is a series of panels showing neurodevelopmental effects of cocaine mediated by CYP3A5. FIG. 5A is an image showing RT-PCR analysis of expression of CYP3A family genes at different stages of neocortical organoid differentiation. “Neocortical organoids” indicates day 44 of differentiation. FIG. 5B is a graph showing ROS formation in the neocortical organoids in presence or absence of cocaine. Neocortical organoids were treated with 3 μM cocaine for 1 h every other day from day 32 to day 44, and endogenous ROS was measured at day 44. n=6. FIG. 5C is a graph showing effects of CYP3A5 or CYP3A43 knockdown on cocaine-induced ROS generation in H9 (dashed line, in the absence of cocaine). n=6. FIG. 5D is a graph showing proliferation of PAX6^+ NE cells of neocortical organoids in the presence or absence of cocaine in H9. Proliferation was examined at day 45 with 1 h BrdU (10 μM) incorporation. n=5. FIG. 5E is a graph showing effects of CYP3A5 or CYP3A43 knockdown on cocaine-induced inhibition of proliferation of PAX6^+ NE cells in H9 (dashed line, in the absence of cocaine). n=7. FIG. 5F is graph showing neuronal differentiation in neocortical organoids in the presence or absence of cocaine in H9. Neuronal differentiation was analyzed 24 h after 1 h BrdU (10 μM) treatment from day 51 to day 52. […] FIG. 5G is a graph showing effects of CYP3A5 or CYP3A43 knockdown on cocaine-induced premature neuronal differentiation in H9 (dashed line, in the absence of cocaine). n=7, FIG. 5H is a graph showing neural tissue development in the presence or absence of cocaine in H9. TUJ1^+ areas in the neocortical organoids were analyzed at day 66. TUJ1^+ areas expressed as percentages of total organoid area on day 24 are shown. n=6. FIG. 5I is a graph showing effects of CYP3A5 or CYP3A43 knockdown on cocaine-induced inhibition of neural tissue development in H9 (dashed line, in the absence of cocaine). n=6. Data are shown as means±SEM. Unpaired two-tailed Student's t-test for H9 and H14 in FIG. 5B, and for FIGS. 5D, 5F, and 5H. […]

Data set [3] has as its system PAX6+ NE cells of neocortical organoids. The note with it: 3 μM cocaine 1 h every other day, days 32-44; day 45; H9 and H14. As to the method: as §1
The test system of data set [4] is neocortical organoids. The note with it: 3 μM cocaine days 32-44; day 66; H9 and H14. As to the method: Adherent cells in culture were fixed with 4% PFA for 10 min, followed by PBS wash. Neocortical organoids embedded in collagen gel were immersed in 4% PFA for 20 min and cryoprotected in 20% sucrose in PBS for 20 min. Cryostat sections (10 μm) were thaw-mounted onto gelatin-subbed slides. Cells and tissue sections were blocked with 0.2% Triton X-100 in PBS supplemented with 5% BSA and 10% goat serum. Cells were then incubated with primary antibodies in 0.2% Triton X-100 in PBS with 5% BSA and 5% goat serum: rabbit anti-BF1 (1:100; Abcam), rat anti-CD133 (1:100; Millipore), rat anti-CTIP2 (1:50; Abcam), rabbit anti-CUX1 (1:100; Santa Cruz Biotechnology), rabbit anti-EMX1 (1:50; Sigma), mouse anti-gamma-tubulin (1:500; Sigma), rat anti-HOXB4 (1:50; DSHB), mouse anti-Ki67 (1:100; BD Biosciences), rabbit anti-N-cadherin (1:100; Abcam), mouse anti-Nestin (1:50; R&D Systems), mouse anti-NKX2.1 (1:200; Chemicon), mouse anti-PAX6 (1:50; DSHB), rabbit anti-PAX6 (1:300; Covance), rabbit anti-PH3 (1:500; Cell Signaling Technology), mouse anti-Reelin (1:200; Millipore), rabbit anti-TBR1 (1:1000; Abcam), and mouse anti-TUJ1 (1:2,000; Promega). […] TUJ1+ neocortical areas were calculated by normalization of TUJ1+ areas in the neocortical organoids at day 66 (using only sections from the center of each organoid) to organoid size at day 24. […]

For data set [5], the system named is neocortical neurons generated from hPSCs.

As for `COC(=O)[C@H]1[C@@H](OC(=O)c2ccccc2)C[C@@H]2CC[C@H]1N2C` [cocaine], the “ROS generation in neocortical organoids” value in the data set with neocortical organoids [1] is “ROS accumulation was observed”. Further, the “migration of BrdU-labeled TUJ1 neurons outwards to the periphery of the NE area” value in the data set on neocortical organoids [2] (BrdU 1 h pulse, 24 h chase) is “increased”. In the data set with neocortical organoids [2] (H9 and H14), the “percentage of BrdU+ cells that expressed TUJ1, compared to control” value is “increased”. In addition, the “proliferation of PAX6+ NE cells” value in data set [3] is “inhibited”. Moreover, in the data set on neocortical organoids [4], the “development of the TUJ1+ area” value is “significantly inhibited”.

For `NC1=N[C@H](O)[C@H]2[C@H]3O[C@]4(O)O[C@@H]([C@@H](O)[C@@]2(N1)[C@@H]4O)[C@]3(O)CO` [tetrodotoxin], the “action potentials recorded in current clamp mode” value in data set [5] is reported as “blocked”.

Values taken from US10087417B2, “Three-dimensional model of human cortex” (priority 2015, dated 2018).
